# Measured values from ChEMBL document CHEMBL4339220, “Scaffold Morphing Approach To Expand the Toolbox of Broad-Spectrum Antivirals Blocking Dengue/Zika Replication” (ACS Med Chem Lett, 2019).
# Columns and labels:
# dengue virus type 2 [1] = test: Antiviral activity against Dengue virus type 2 NGC infected in African green monkey Vero B cells assessed as reduction in virus yield; assay type: functional, organism-based, Thailand/NGS-C/1944
# [2] = Cytotoxicity in African green monkey Vero B cells assessed as reduction in cell viability by MTS assay; assay type: cell-based; details: chlorocebus aethiops
# [3] = Selectivity index, ratio of CC50 for African green monkey Vero B cells to EC50 for Dengue virus type 2 NGC infected in African green monkey Vero B cells; assay type: toxicity; details: read-out: Ratio CC50/EC50
# Dengue virus = test: Antiviral activity against Dengue virus; assay type: functional, organism-based
# Zika virus [4] = test: Antiviral activity against Zika virus; assay type: functional, organism-based
# Zika virus [5] = test: Antiviral activity against Zika virus MR766 infected in African green monkey Vero E6 cells assessed as reduction in virus yield; assay type: functional, organism-based; details: MR766, Vero C1008
# [6] = Cytotoxicity in African green monkey Vero E6 cells assessed as reduction in cell viability by MTS assay; assay type: cell-based; details: chlorocebus sabaeus, Vero E6 cells (Vero C1008)
# [7] = Selectivity index, ratio of CC50 for African green monkey Vero E6 cells to EC50 for Zika virus MR766 infected in African green monkey Vero E6 cells; assay type: toxicity, Vero C1008; details: read-out: Ratio CC50/EC50
# dengue virus type 2 [8] = test: Potency index, ratio of EC50 for RBV to EC50 for test compound for antiviral activity against Dengue virus type 2 NGC infected in African green monkey Vero B cells assessed as reduction in virus yield; assay type: functional, Thailand/NGS-C/1944
# Zika virus [9] = test: Potency index, ratio of EC50 for 7DMA to EC50 for test compound for antiviral activity against Zika virus MR766 infected in African green monkey Vero E6 cells assessed as reduction in virus yield; assay type: functional, Vero C1008
# [10] = Dengue virus, Thailand/NGS-C/1944, Vero B, read-out: EC50
Compound,CC50 [2],EC50 (dengue virus type 2 [1]; [10]),selectivity ratio [3],EC50 (Zika virus [5]),CC50 [6],further results
NS(=O)(=O)c1ccc(Nc2nc(N3CCOCC3)nc3[nH]cnc23)cc1,373 µM,–,–,–,–,EC50 (dengue virus type 2 [1]): Not Active
OCCNc1nc(Nc2cccc(O)c2)c2nc[nH]c2n1,> 175 µM,7.4 µM,> 24,–,–,–
O=C1OCc2c(Nc3cccc(O)c3)nc(N3CCOCC3)nc21,> 128 µM,> 128 µM,–,–,–,–
Oc1cccc(Nc2nc(N3CCOCC3)nc3[nH]cnc23)c1,122 µM,40.6 µM,3,–,–,EC50 (Dengue virus): 40.6 µM
O=C1c2nc(N3CCOCC3)nc(Nc3cccc(O)c3)c2CN1CCc1ccccc1,> 116 µM,70.7 µM,–,–,–,–
Oc1cccc(Nc2nc(NCCOc3ccccc3)nc3[nH]cnc23)c1,69.4 µM,10 µM,6.9,16.7 µM,> 124 µM,EC50 (Dengue virus): 10 µM; EC50 (Zika virus [4]): 16.7 µM; selectivity ratio [7]: > 7.4
O=C(NCCOc1ccccc1)c1nc(N2CCOCC2)nc(Nc2cccc(O)c2)c1CO,73.3 µM,62.1 µM,1.2,–,–,–
O=C1c2nc(N3CCOCC3)nc(Nc3cccc(O)c3)c2CN1CCOc1ccccc1,> 100 µM,20.6 µM,> 4.9,–,–,–
COc1ccc(CN2Cc3c(Nc4cccc(O)c4)nc(N4CCOCC4)nc3C2=O)cc1,> 112 µM,> 112 µM,–,–,–,–
CCCCCOCc1c(Nc2ccc(S(N)(=O)=O)cc2)nc(N2CCOCC2)nc1C(=O)NCCOc1ccccc1,> 83.5 µM,1.82 µM,> 46,2.04 µM,> 83.5 µM,selectivity ratio [7]: > 41; Ratio EC50 (dengue virus type 2 [8]): 6; Ratio EC50 (Zika virus [9]): 3
CCCCCOCc1c(Nc2cccc(O)c2)nc(N2CCOCC2)nc1C(=O)NCc1ccc(C(F)(F)F)cc1,32.8 µM,10.9 µM,3,13.9 µM,48.2 µM,selectivity ratio [7]: 3.5
O=C(NCCc1ccccc1)c1nc(N2CCOCC2)nc(Nc2cccc(O)c2)c1CO,64.5 µM,20.7 µM,3.1,–,–,–
NS(=O)(=O)c1ccc(Nc2nc(N3CCOCC3)nc(C(=O)NCc3ccccc3)c2CO)cc1,> 100 µM,> 100 µM,–,–,–,–
COc1ccc(CNC(=O)c2nc(N3CCOCC3)nc(Nc3cccc(O)c3)c2CO)cc1,> 107 µM,> 107 µM,–,–,–,–
CCCCCOCc1c(Nc2ccc(S(N)(=O)=O)cc2)nc(N2CCOCC2)nc1C(=O)NCc1ccccc1,> 87.9 µM,1 µM,> 88,> 87.9 µM,> 87.9 µM,–
O=C(NCc1ccccc1)c1nc(N2CCOCC2)nc(Nc2cccc(O)c2)c1CO,> 115 µM,> 115 µM,–,–,–,–
CCCCCOCc1c(Nc2ccc(S(N)(=O)=O)cc2)nc(N2CCOCC2)nc1C(=O)NCc1ccc(OC)cc1,> 83.5 µM,> 83.5 µM,–,–,–,–
COc1ccc(CN2Cc3c(Nc4ccc(S(N)(=O)=O)cc4)nc(N4CCOCC4)nc3C2=O)cc1,> 97.9 µM,> 97.9 µM,–,–,–,–
CCCCCOCc1c(Nc2cccc(O)c2)nc(N2CCOCC2)nc1C(=O)NCc1ccccc1,39.4 µM,20.7 µM,1.9,57.8 µM,> 98.9 µM,selectivity ratio [7]: > 1.7
NS(=O)(=O)c1ccc(Nc2nc(N3CCOCC3)nc3c2CN(CCOc2ccccc2)C3=O)cc1,> 97.9 µM,12.2 µM,> 8,> 97.9 µM,> 97.9 µM,–
O=C1c2nc(N3CCOCC3)nc(Nc3cccc(O)c3)c2CN1Cc1ccccc1,> 120 µM,100 µM,–,–,–,–
NS(=O)(=O)c1ccc(Nc2nc(N3CCOCC3)nc3c2CN(Cc2ccccc2)C3=O)cc1,> 104 µM,21.6 µM,> 4.8,> 104 µM,> 104 µM,–
NS(=O)(=O)c1ccc(Nc2nc(N3CCOCC3)nc3c2COC3=O)cc1,> 128 µM,> 128 µM,–,–,–,–
C[C@@]1(O)[C@H](O)[C@@H](CO)O[C@H]1n1ccc2c(N)ncnc21 [BETA-2'-C-METHYL-7-DEAZA-ADENOSINE],–,–,–,5.7 µM,> 357 µM,EC50 (Zika virus [4]): 9.6 µM; selectivity ratio [7]: > 64
NC(=O)c1ncn([C@@H]2O[C@H](CO)[C@@H](O)[C@H]2O)n1 [RIBAVIRIN],> 409 µM,11.9 µM,> 34,–,–,EC50 (Dengue virus): 11.9 µM; EC50 (Zika virus [4]): 12 µM
